Laboratory results taken from PubChem BioAssay AID2060621 (Molecular Pharmacology Branch, DTP, NCI, 2025).

Tested on: 324938-238-R-J1-PDC complex spheroids viability
Experiment: Anticancer human tumor 324938-238-R-J1-PDC patient-derived bladder carcinoma cell line growth inhibition [CLK]
Conditions: for IC50: curve of first compound; for viability, T/C: stronger effect = lower value
Text: A high-throughput screen of multi-cell type tumor spheroids was designed to identify active combinations of […] and targeted small molecules. Complex spheroids include a stromal component modeled by human endothelial cells (HUVEC) and fibroblasts modeled by human mesenchymal stem cells (MSCs). The concentration ranges selected for each drug and investigational agent were based upon clinically achievable concentrations if the clinical Cmax of the agent was known.
Compounds. The drugs and investigational agents: cirtuvivint (SM08502; NSC835563), CC-671 (NSC850746), vemurafenib (NSC761431), tapotoclax (NSC804041), sotorasib (NSC818433), adagrasib (NSC831453), MRTX-1133 (NSC836407), BAY2416964 (NSC825713), copanlisib (NSC816437), inavolisib (NSC800729), abemaciclib (NSC768073), osimertinib (NSC779217), entinostat (NSC756642), eltanexor (KPT-8602, NSC794443), venetoclax (NSC766270), ceralasertib (NSC777638), bortezomib (NSC756655), olaparib (NSC753686), talazoparib (NSC767125), alisertib (NSC759677), peposertib (NSC802822), gemcitabine (NSC613327), 5-fluorouracil (NSC19893), SN-38 (NSC673596), oxaliplatin (NSC266046), paclitaxel (NSC125973), and doxorubicin (NSC123127), were obtained from the National Cancer Institute (NCI) Developmental Therapeutics Program Chemical Repository. The FDA-approved anticancer drug set is available from the Developmental Therapeutics Program at https://dtp.cancer.gov/organization/dscb/obtaining/available plates.htm. […] The stock solutions were prepared in dimethyl sulfoxide (DMSO, Sigma-Aldrich, St. Louis, MO, cat. D2650), except for the platinum complexes which were prepared in saline (Quality Biological, Gaithersburg, MD, cat. 114-055-101), at 800-fold the tested concentration and stored at -70 degrees C prior to their use. All drugs and investigational agents were tested over a range starting from a high concentration at or near the clinical Cmax and decreasing in half-log increments. If the clinical Cmax for an agent had not been determined, the highest concentration tested was 10 microM.
Cell Culture. All cells were maintained in an incubator at 37 degrees C and 5% CO2 with 95% humidity. The PDC lines were cultured according to standard operating procedures established by the NCI PDMR. Briefly, all PDCs were thawed and cultured in Matrigel-coated flasks prepared with a working solution of 1X Ham's F-12 nutrient mix, without supplementation (Invitrogen, Waltham, MA, cat. 11765054), 100 U/mL penicillin-streptomycin (Invitrogen, cat. 15140122), and 2.5% Matrigel (Corning Inc., Corning, NY, cat. 354248) for the first three passages. The 947758-054-R-J2-PDC line was cultured in 6B/Colon 1A media, which includes advanced DMEM/F-12 (Thermo Fisher Scientific, cat. 12634028), 10 mM HEPES (Thermo Fisher Scientific, cat. 15630080), 1X GlutaMAX supplement (Thermo Fisher Scientific, cat. 35050061), 0.1 mg/mL primocin (InvivoGen, cat. ant-pm-2), 10% defined fetal bovine serum, heat inactivated (HyClone Laboratories Inc., cat. SH30070.03HI), 1.25 mM N-Acetyl-L-cysteine (Sigma-Aldrich, cat. A9165), 10 mM nicotinamide (Sigma-Aldrich, cat. N0636), 1X B-27 supplement (Thermo Fisher Scientific, cat. 17504044), 1X N-2 supplement (Thermo Fisher Scientific, cat. 17502048), and 10 microM Y-27632 dihydrochloride (Tocris Bioscience, cat. 1254). The 876862-298-R-J1-PDC was cultured in 6E media, which includes all 6B/Colon 1A media components plus 50% L-WRN conditioned media (ATCC, cat. CRL-3276), 50 ng/mL recombinant human EGF recombinant protein (hEGF; Thermo Fisher Scientific, cat. PHG0311), 10 ng/mL recombinant human fibroblast growth factor 10 (hGFG-10; PeproTech, cat. 100-26), 1 ng/mL recombinant human fibroblast growth factor 2 (hFGF-2; PeproTech, cat. 100-18B), and 1 µM prostaglandin E2 (PGE2; Tocris, cat. 2296). The 227483-062-R1-J1-PDC line was cultured in Panc media, containing all 6E components except hFGF-2, with the addition of 500 nM SB-431542 (Selleckchem, cat. S1067) and 10 nM gastrin (Tocris, cat. 3006). […]

[1] = second compound 0.0316 µM, first compound 0.0316 µM
[2] = second compound 0.0316 µM, first compound 0.1 µM
[3] = second compound 0.0316 µM, first compound 0.316 µM
[4] = second compound 0.0316 µM, first compound 1 µM
[5] = second compound 0.1 µM, first compound 0.0316 µM
[6] = second compound 0.1 µM, first compound 0.1 µM
[7] = second compound 0.1 µM, first compound 0.316 µM
[8] = second compound 0.1 µM, first compound 1 µM
[9] = second compound 0.316 µM, first compound 0.0316 µM
[10] = second compound 0.316 µM, first compound 0.1 µM
[11] = second compound 0.316 µM, first compound 0.316 µM
[12] = second compound 0.316 µM, first compound 1 µM
[13] = second compound 1 µM, first compound 0.0316 µM
[14] = second compound 1 µM, first compound 0.1 µM
[15] = second compound 1 µM, first compound 0.316 µM
[16] = second compound 1 µM, first compound 1 µM
[17] = second compound 3.16 µM, first compound 0.0316 µM
[18] = second compound 3.16 µM, first compound 0.1 µM
[19] = second compound 3.16 µM, first compound 0.316 µM
[20] = second compound 3.16 µM, first compound 1 µM
[21] = second compound 10 µM, first compound 0.0316 µM
[22] = second compound 10 µM, first compound 0.1 µM
[23] = second compound 10 µM, first compound 0.316 µM
[24] = second compound 10 µM, first compound 1 µM
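Also: viability read after seven days of drug exposure.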
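For viability, T/C in this document: 100% = DMSO vehicle control wells.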

How did the IC50 (second compound 0.0316 µM) turn out when `CC(CO)NC(=O)c1cc(-c2ccc(Cl)cc2)nn(-c2cnn(C)c2)c1=O` (centres undefined) + CNC(=O)c1ccc(Nc2nc(OC3CCCC3)c3c(-c4ccc5nc(C)oc5c4)c[nH]c3n2)c(OC)c1 was run?
Its IC50 is over 10000 nM.

What about the IC50 (second compound 0.1 µM) of the same compound?
The IC50 was under 31.6 nM.

What about the IC50 (second compound 0.316 µM) of the same compound?
Its IC50 is under 31.6 nM.

And the IC50 (second compound 1 µM)?
Its IC50 is under 31.6 nM.

What about the IC50 (second compound 3.16 µM) of the same compound?
Its IC50 is under 31.6 nM.

What about the IC50 (second compound 10 µM) of the same compound?
The IC50 was under 31.6 nM.

What about the viability, T/C [1] of the same compound?
The viability, T/C was 82.2%.

What about the viability, T/C [2] of the same compound?
The viability, T/C was 90.3%.

What about the viability, T/C [3] of the same compound?
The viability, T/C was 89.1%.

And the viability, T/C [4]?
Its viability, T/C is 81.1%.

And the viability, T/C (second compound 0.0316 µM, first compound 3.16 µM)?
The viability, T/C was 66.1%.

What about the viability, T/C (second compound 0.0316 µM, first compound 10 µM) of the same compound?
The viability, T/C was 50.6%.

What about the viability, T/C [5] of the same compound?
Its viability, T/C is 28.9%.

And the viability, T/C [6]?
The viability, T/C was 33.2%.

What about the viability, T/C [7] of the same compound?
The viability, T/C was 34.6%.

And the viability, T/C [8]?
Its viability, T/C is 35%.

What about the viability, T/C (second compound 0.1 µM, first compound 3.16 µM) of the same compound?
The viability, T/C was 29.4%.

And the viability, T/C (second compound 0.1 µM, first compound 10 µM)?
Its viability, T/C is 28%.

What about the viability, T/C [9] of the same compound?
Its viability, T/C is 19%.

What about the viability, T/C [10] of the same compound?
The viability, T/C was 19.3%.

What about the viability, T/C [11] of the same compound?
Its viability, T/C is 21.6%.

And the viability, T/C [12]?
The viability, T/C was 18.7%.

What about the viability, T/C (second compound 0.316 µM, first compound 3.16 µM) of the same compound?
Its viability, T/C is 19.1%.

What about the viability, T/C (second compound 0.316 µM, first compound 10 µM) of the same compound?
The viability, T/C was 21.1%.

And the viability, T/C [13]?
Its viability, T/C is 16.4%.

What about the viability, T/C [14] of the same compound?
The viability, T/C was 16%.

What about the viability, T/C [15] of the same compound?
Its viability, T/C is 15.9%.

What about the viability, T/C [16] of the same compound?
The viability, T/C was 16.9%.

What about the viability, T/C (second compound 1 µM, first compound 3.16 µM) of the same compound?
The viability, T/C was 18.4%.

And the viability, T/C (second compound 1 µM, first compound 10 µM)?
The viability, T/C was 18.6%.

What about the viability, T/C [17] of the same compound?
The viability, T/C was 15.9%.

What about the viability, T/C [18] of the same compound?
The viability, T/C was 15.5%.

And the viability, T/C [19]?
The viability, T/C was 15.1%.

And the viability, T/C [20]?
The viability, T/C was 16.2%.

And the viability, T/C (second compound 3.16 µM, first compound 3.16 µM)?
Its viability, T/C is 18.1%.

What about the viability, T/C (second compound 3.16 µM, first compound 10 µM) of the same compound?
The viability, T/C was 17.6%.

What about the viability, T/C [21] of the same compound?
Its viability, T/C is 17.3%.

And the viability, T/C [22]?
The viability, T/C was 16.3%.

And the viability, T/C [23]?
The viability, T/C was 15.2%.

What about the viability, T/C [24] of the same compound?
The viability, T/C was 16.5%.

And the viability, T/C (second compound 10 µM, first compound 3.16 µM)?
The viability, T/C was 17%.

And the viability, T/C (second compound 10 µM, first compound 10 µM)?
Its viability, T/C is 15.6%.

Which results are given for `CCc1c2c(nc3ccc(O)cc13)-c1cc3c(c(=O)n1C2)COC(=O)[C@]3(O)CC` + CN1CCN(c2cc(C(=O)Nc3cc4cc(-c5cnn(C)c5)ccc4cn3)ccn2)CC1?
IC50 (second compound 0.0316 µM): < 3.16 nM; IC50 (second compound 0.1 µM): < 3.16 nM; IC50 (second compound 0.316 µM): < 3.16 nM; IC50 (second compound 1 µM): < 3.16 nM; IC50 (second compound 3.16 µM): < 3.16 nM; IC50 (second compound 10 µM): < 3.16 nM; viability, T/C (second compound 0.0316 µM, first compound 0.00316 µM): 14.9%; viability, T/C (second compound 0.0316 µM, first compound 0.01 µM): 10.1%; viability, T/C [1]: 11.5%; viability, T/C [2]: 9.42%; viability, T/C [3]: 8.03%; viability, T/C [4]: 1.47%; viability, T/C (second compound 0.1 µM, first compound 0.00316 µM): 12.7%; viability, T/C (second compound 0.1 µM, first compound 0.01 µM): 10.3%; viability, T/C [5]: 8.87%; viability, T/C [6]: 8.12%; viability, T/C [7]: 6.95%; viability, T/C [8]: 1.21%; viability, T/C (second compound 0.316 µM, first compound 0.00316 µM): 10.5%; viability, T/C (second compound 0.316 µM, first compound 0.01 µM): 7.5%; viability, T/C [9]: 4.44%; viability, T/C [10]: 3.89%; viability, T/C [11]: 0.83%; viability, T/C [12]: 0.18%; viability, T/C (second compound 1 µM, first compound 0.00316 µM): 0.42%; viability, T/C (second compound 1 µM, first compound 0.01 µM): 0.28%; viability, T/C [13]: 0.24%; viability, T/C [14]: 0.06%; viability, T/C [15]: 0.09%; viability, T/C [16]: 0.38%; viability, T/C (second compound 3.16 µM, first compound 0.00316 µM): 0.16%; viability, T/C (second compound 3.16 µM, first compound 0.01 µM): 0.17%; viability, T/C [17]: 0.19%; viability, T/C [18]: 0.1%; viability, T/C [19]: 0.16%; viability, T/C [20]: 0.14%; viability, T/C (second compound 10 µM, first compound 0.00316 µM): 0.1%; viability, T/C (second compound 10 µM, first compound 0.01 µM): 0.11%; viability, T/C [21]: 0.17%; viability, T/C [22]: 0.11%; viability, T/C [23]: 0.16%; viability, T/C [24]: 0.16%
